In ChEMBL document CHEMBL1201862, “PubChem BioAssay data set” (2004):
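The compound was tested at five concentrations on cells cultured in 96-well plates, with a 48-hour exposure period. Here, GI50 denotes the concentration required for 50% inhibition of growth.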 The source made the active and inactive calls. Rule as the data show it: active = GI50 up to about 1.1 µM and inactive = higher.

Tests used:
Test in all cases: NCI anticancer screen, dose series, 48 h
ACHN = system: ACHN
BT-549 = system: BT-549
CAKI-1 = system: CAKI-1
HCT-116 = system: HCT-116
HCT-15 = system: HCT-15
HOP-92 = system: HOP-92
IGROV-1 = system: IGROV-1
LOX IMVI = system: LOX IMVI
M14 = system: M14
MDA-MB-231 = system: MDA-MB-231
MOLT-4 = system: MOLT-4
NCI-H522 = system: NCI-H522
NCI/ADR-RES = system: NCI/ADR-RES
OVCAR-3 = system: OVCAR-3
OVCAR-4 = system: OVCAR-4
SNB-19 = system: SNB-19
SW-620 = system: SW-620
UACC-62 = system: UACC-62

Oc1cc(Cl)cc2cccnc12
GI50 (ACHN): 1.38 µM (inactive)
GI50 (BT-549): 3.89 µM (inactive)
GI50 (CAKI-1): 5 µM (inactive)
GI50 (HCT-116): 1.43 µM (inactive)
GI50 (HCT-15): 0.552 µM
GI50 (HOP-92): 3.25 µM (inactive)
GI50 (IGROV-1): 0.986 µM (active)
GI50 (LOX IMVI): 0.625 µM (active)
GI50 (M14): 10.5 µM (inactive)
GI50 (MDA-MB-231): 2.19 µM (inactive)
GI50 (MOLT-4): 0.465 µM (active)
GI50 (NCI-H522): 0.348 µM (active)
GI50 (NCI/ADR-RES): 0.354 µM (active)
GI50 (OVCAR-3): 0.306 µM (active)
GI50 (OVCAR-4): 0.411 µM (active)
GI50 (SNB-19): 5.94 µM (inactive)
GI50 (SW-620): 1.65 µM (inactive)
GI50 (UACC-62): 1.01 µM (active)

Cc1cc(C)n(C(=O)C(C)Sc2nnc(SC(C)C(=O)n3nc(C)cc3C)s2)n1 (centres undefined)
GI50 (ACHN): > 100 µM (inactive)
GI50 (BT-549): > 100 µM (inactive)
GI50 (CAKI-1): > 100 µM (inactive)
GI50 (HCT-116): > 100 µM (inactive)
GI50 (HCT-15): > 100 µM
GI50 (HOP-92): > 100 µM (inactive)
GI50 (IGROV-1): > 100 µM (inactive)
GI50 (LOX IMVI): > 100 µM (inactive)
GI50 (M14): > 100 µM (inactive)
GI50 (MDA-MB-231): > 100 µM (inactive)
GI50 (MOLT-4): > 100 µM (inactive)
GI50 (NCI/ADR-RES): > 100 µM (inactive)
GI50 (OVCAR-3): > 100 µM (inactive)
GI50 (OVCAR-4): > 100 µM (inactive)
GI50 (SNB-19): > 100 µM (inactive)
GI50 (SW-620): > 100 µM (inactive)
GI50 (UACC-62): > 100 µM (inactive)

CN1CCN(c2ccc3c(c2)NCC(=O)N3)CC1
GI50 (ACHN): > 100 µM (inactive)
GI50 (BT-549): > 100 µM (inactive)
GI50 (CAKI-1): > 100 µM (inactive)
GI50 (HCT-116): > 100 µM (inactive)
GI50 (HCT-15): > 100 µM
GI50 (HOP-92): > 100 µM (inactive)
GI50 (IGROV-1): > 100 µM (inactive)
GI50 (LOX IMVI): > 100 µM (inactive)
GI50 (M14): > 100 µM (inactive)
GI50 (MDA-MB-231): > 100 µM (inactive)
GI50 (MOLT-4): > 100 µM (inactive)
GI50 (NCI-H522): > 100 µM (inactive)
GI50 (NCI/ADR-RES): > 100 µM (inactive)
GI50 (OVCAR-3): > 100 µM (inactive)
GI50 (OVCAR-4): > 100 µM (inactive)
GI50 (SNB-19): > 100 µM (inactive)
GI50 (SW-620): > 100 µM (inactive)
GI50 (UACC-62): > 100 µM (inactive)

COc1ccc2nc3c([N+](=O)[O-])ccc4c3c(c2c1)N=CN4CCCN(C)C
GI50 (ACHN): 0.743 µM (active)
GI50 (BT-549): 8.22 µM (inactive)
GI50 (CAKI-1): 1.27 µM (inactive)
GI50 (HCT-116): 0.419 µM (active)
GI50 (HCT-15): 0.53 µM
GI50 (HOP-92): 1.99 µM (inactive)
GI50 (IGROV-1): 0.855 µM (active)
GI50 (LOX IMVI): 2.01 µM (inactive)
GI50 (M14): 4.73 µM (inactive)
GI50 (MDA-MB-231): 1.37 µM (inactive)
GI50 (MOLT-4): 0.23 µM (active)
GI50 (NCI-H522): 1.34 µM (inactive)
GI50 (NCI/ADR-RES): 2.32 µM (inactive)
GI50 (OVCAR-3): 2.91 µM (inactive)
GI50 (OVCAR-4): 1.65 µM (inactive)
GI50 (SNB-19): 4.74 µM (inactive)
GI50 (SW-620): 0.44 µM (active)
GI50 (UACC-62): 6.24 µM (inactive)

CC1CC(C)(O)CC(C(O)CC2CC(=O)NC(=O)C2)C1=O (centres undefined) [RESACTIN A]
GI50 (ACHN): 0.0224 µM (active)
GI50 (BT-549): 0.113 µM (active)
GI50 (CAKI-1): < 0.01 µM (active)
GI50 (HCT-116): 0.0308 µM (active)
GI50 (HCT-15): 0.0989 µM
GI50 (HOP-92): < 0.02 µM (active)
GI50 (IGROV-1): 0.0292 µM (active)
GI50 (LOX IMVI): 0.0283 µM (active)
GI50 (M14): 0.034 µM (active)
GI50 (MDA-MB-231): < 0.01 µM (active)
GI50 (MOLT-4): 0.0151 µM (active)
GI50 (NCI-H522): < 0.0135 µM (active)
GI50 (NCI/ADR-RES): 0.232 µM (active)
GI50 (OVCAR-3): 0.0566 µM (active)
GI50 (OVCAR-4): 0.0447 µM (active)
GI50 (SNB-19): 0.0303 µM (active)
GI50 (SW-620): 0.0294 µM (active)
GI50 (UACC-62): 0.0413 µM (active)

N#Cc1c(-c2ccc(Cl)cc2)cc(-c2nc3ccccc3[nH]2)nc1N
GI50 (ACHN): 11.1 µM (inactive)
GI50 (BT-549): 14.4 µM (inactive)
GI50 (CAKI-1): 17.9 µM (inactive)
GI50 (HCT-116): 10.3 µM (inactive)
GI50 (HCT-15): 10.9 µM
GI50 (HOP-92): 11 µM (inactive)
GI50 (IGROV-1): 2.39 µM (inactive)
GI50 (LOX IMVI): 10.2 µM (inactive)
GI50 (M14): 4.32 µM (inactive)
GI50 (MDA-MB-231): 12.2 µM (inactive)
GI50 (MOLT-4): 2.92 µM (inactive)
GI50 (NCI-H522): 13.7 µM (inactive)
GI50 (NCI/ADR-RES): 15 µM (inactive)
GI50 (OVCAR-3): 12.5 µM (inactive)
GI50 (OVCAR-4): 18.6 µM (inactive)
GI50 (SNB-19): 12.1 µM (inactive)
GI50 (SW-620): 15 µM (inactive)
GI50 (UACC-62): 7.66 µM (inactive)

Cc1ccc(CN2CCN(Cc3ccc(C)o3)C(C)C2)o1 (centres undefined)
GI50 (ACHN): > 100 µM (inactive)
GI50 (BT-549): > 100 µM (inactive)
GI50 (CAKI-1): > 100 µM (inactive)
GI50 (HCT-116): > 100 µM (inactive)
GI50 (HCT-15): > 100 µM
GI50 (HOP-92): > 100 µM (inactive)
GI50 (IGROV-1): > 100 µM (inactive)
GI50 (LOX IMVI): > 100 µM (inactive)
GI50 (M14): > 100 µM (inactive)
GI50 (MDA-MB-231): > 100 µM (inactive)
GI50 (MOLT-4): > 100 µM (inactive)
GI50 (NCI-H522): > 100 µM (inactive)
GI50 (NCI/ADR-RES): > 100 µM (inactive)
GI50 (OVCAR-3): > 100 µM (inactive)
GI50 (OVCAR-4): > 100 µM (inactive)
GI50 (SNB-19): > 100 µM (inactive)
GI50 (SW-620): > 100 µM (inactive)
GI50 (UACC-62): > 100 µM (inactive)

COc1cc2ccccc2c2cc([N+](=O)[O-])oc12
GI50 (ACHN): 0.174 µM (active)
GI50 (BT-549): 1.64 µM (inactive)
GI50 (CAKI-1): 0.48 µM (active)
GI50 (HCT-116): 0.249 µM (active)
GI50 (HCT-15): 1.03 µM
GI50 (HOP-92): 0.78 µM (active)
GI50 (IGROV-1): 1.25 µM (inactive)
GI50 (LOX IMVI): 0.314 µM (active)
GI50 (M14): 0.142 µM (active)
GI50 (MDA-MB-231): 0.655 µM (active)
GI50 (MOLT-4): 0.0792 µM (active)
GI50 (NCI-H522): 0.183 µM (active)
GI50 (NCI/ADR-RES): 1.43 µM (inactive)
GI50 (OVCAR-3): 1.43 µM (inactive)
GI50 (OVCAR-4): 3.48 µM (inactive)
GI50 (SNB-19): 0.811 µM (active)
GI50 (SW-620): 0.893 µM (active)
GI50 (UACC-62): 0.809 µM (active)

N#Cc1c(N)sc2c1-c1ccccc1OC2
GI50 (ACHN): 32.2 µM (inactive)
GI50 (BT-549): 41 µM (inactive)
GI50 (HCT-116): 27.3 µM (inactive)
GI50 (HCT-15): 26.7 µM
GI50 (HOP-92): 44 µM (inactive)
GI50 (IGROV-1): 49.7 µM (inactive)
GI50 (LOX IMVI): 38.1 µM (inactive)
GI50 (M14): 56.5 µM (inactive)
GI50 (MDA-MB-231): 46.9 µM (inactive)
GI50 (MOLT-4): 17.5 µM (inactive)
GI50 (NCI/ADR-RES): 32.2 µM (inactive)
GI50 (OVCAR-3): 22.3 µM (inactive)
GI50 (OVCAR-4): 26.5 µM (inactive)
GI50 (SNB-19): 30.5 µM (inactive)
GI50 (SW-620): 35.5 µM (inactive)
GI50 (UACC-62): 53.7 µM (inactive)

O=S(=O)(Cc1nc2ccccc2s1)c1nc2ccccc2s1
GI50 (ACHN): 16.3 µM (inactive)
GI50 (BT-549): 16.5 µM (inactive)
GI50 (HCT-116): 13.9 µM (inactive)
GI50 (HCT-15): 16.3 µM
GI50 (HOP-92): 12.9 µM (inactive)
GI50 (IGROV-1): 18.7 µM (inactive)
GI50 (LOX IMVI): 10 µM (inactive)
GI50 (M14): 13 µM (inactive)
GI50 (MDA-MB-231): 17.1 µM (inactive)
GI50 (MOLT-4): 17.6 µM (inactive)
GI50 (NCI-H522): 15.5 µM (inactive)
GI50 (NCI/ADR-RES): 43.2 µM (inactive)
GI50 (OVCAR-3): 14.4 µM (inactive)
GI50 (OVCAR-4): 16.9 µM (inactive)
GI50 (SNB-19): 21.5 µM (inactive)
GI50 (SW-620): 17.2 µM (inactive)
GI50 (UACC-62): 16 µM (inactive)

COc1cc(/C=C(\C#N)c2nc3ccccc3o2)ccc1O
GI50 (ACHN): 19 µM (inactive)
GI50 (BT-549): 16.1 µM (inactive)
GI50 (CAKI-1): 17.3 µM (inactive)
GI50 (HCT-116): 16.5 µM (inactive)
GI50 (HCT-15): 16.4 µM
GI50 (HOP-92): 14.1 µM (inactive)
GI50 (IGROV-1): 17.2 µM (inactive)
GI50 (M14): 13.6 µM (inactive)
GI50 (MDA-MB-231): 21.8 µM (inactive)
GI50 (MOLT-4): 28.5 µM (inactive)
GI50 (NCI-H522): 13.3 µM (inactive)
GI50 (NCI/ADR-RES): 24.1 µM (inactive)
GI50 (OVCAR-3): 14 µM (inactive)
GI50 (OVCAR-4): 11.2 µM (inactive)
GI50 (SNB-19): 32.4 µM (inactive)
GI50 (UACC-62): 18.6 µM (inactive)

CC(=O)O[C@H]1CC[C@H]2[C@@H]3CCC4=C/C(=N/OCCN(C)C)CC[C@]4(C)[C@H]3CC[C@]12C
GI50 (ACHN): 13.4 µM (inactive)
GI50 (BT-549): 12.8 µM (inactive)
GI50 (CAKI-1): 14 µM (inactive)
GI50 (HCT-116): 4.25 µM (inactive)
GI50 (HCT-15): 2.22 µM
GI50 (IGROV-1): 13.1 µM (inactive)
GI50 (LOX IMVI): 3.16 µM (inactive)
GI50 (M14): 3.18 µM (inactive)
GI50 (MDA-MB-231): 20.2 µM (inactive)
GI50 (MOLT-4): 5.42 µM (inactive)
GI50 (NCI-H522): 6.87 µM (inactive)
GI50 (NCI/ADR-RES): 12.6 µM (inactive)
GI50 (OVCAR-3): 12.8 µM (inactive)
GI50 (OVCAR-4): 10.9 µM (inactive)
GI50 (SNB-19): 7.59 µM (inactive)
GI50 (SW-620): 9.51 µM (inactive)
GI50 (UACC-62): 10.7 µM (inactive)
